These results are taken from patent US6429212B1, “Medicinal composition” (Ishihara Sangyo Kaisha Ltd., priority 1996, dated 2002).

For orientation: melting point means the temperature of the solid-liquid transition.

Series [1] deals with TNF-α production or secretion by human leukemia cells HL-60 (TPA stimulation). The experiment in a line: Influence on TNF-α production or secretion by HL-60 cells stimulated by TPA (ELISA of supernatant). Format: cell-based. Conditions: for amount of TNF-α, TPA alone = 100%: HL-60, TPA stimulation (Table 11); for amount of TNF-α in the supernatant, TPA alone = 100%: HL-60, TPA 10 nM, 16 hours (Table 9). The protocol:
(§1) Human leukemia cells HL-60 produce tumor necrosis factor (TNF-α) by stimulation of Okadaic acid (9,10-Deepithio-9,10-didehydroacanthifolicin) or 12O-tetradecanoyl phorbol-13-acetate (TPA). Influences of the compounds of the present invention to production or secretion of TNF-α by them were observed.
The same operation was carried out as in Test Example 1, except that TPA (produced by Sigma) having a final concentration of 10 nM was used, instead of Okadaic acid having a final concentration of 50 nM.
The values in the Table are values obtained by supposing the amount of TNF-α in the supernatant of the culture medium when treated only with TPA having a final concentration of 10 nM, 100%.
Human leukemia cells (HL-60) produce tumor necrosis factor (TNF-α) by stimulation of 12O-tetradecanoyl phorbol-13-acetate (TPA). The influences of the compounds of the present invention to production of TNF-αby it were observed.
(§2) Human leukemia cells (HL-60) were cultured by using a RPMI 1640 culture medium (including 5% fetal bovine serum), in a carbonic acid gas incubator (5% CO2, humidified, 37° C.). Then, the cells were pre-cultured in a RPMI 1640 culture medium (including 10% fetal bovine serum). TPA was added thereto, so that the final concentration was 10 nM based on the HL-60 cells (5×10^5 cells/ml) in an exponentially growing stage. Then, the compound of the present invention was added thereto so that the predetermined concentration could be obtained, to prepare a cell suspension, which was then cultured in a carbonic gas incubator (5% CO2, humidified, 37° C.). In this culture, a multiplate having 24 holes (produced by Corning) was used, and the cell suspension was injected in an amount of 0.5 ml per hole, to culture the cells.
16 hours after the culture started, the cells were removed by centrifugation(1000-2000 rpm×10 min), and the amount of TNF-α in the supernatant was measured in accordance with the method of Amersham, by using human TNF-α ELISA system (produced by Amersham).
The values are obtained by supposing the amount of TNF-α when treated only with TPA having a final concentration of 10 nM, 100%.
The influences of the compounds of the present invention to production or secretion of TNF-α by TPA stimulation were observed, in the same manner as in Test Example 2.

Series [2] has as its system TNF-α production or secretion by human leukemia cells HL-60 (Okadaic acid stimulation). Put plainly: Influence on TNF-α production or secretion by HL-60 cells stimulated by Okadaic acid (ELISA of supernatant). Conditions: for amount of TNF-α in the supernatant, Okadaic acid alone = 100%: HL-60, Okadaic acid 50 nM, 16 hours (Table 8); for amount of TNF-α, Okadaic acid alone = 100%: HL-60, Okadaic acid stimulation (Table 10). Format: cell-based. The procedure:
as §1
as §2, with “bovine serum). Okadaic acid was added” for “bovine serum). TPA was added”, “concentration was 50 nM based” for “concentration was 10 nM based”, “a carbonic acid gas incubator” for “a carbonic gas incubator”
16 hours after the culture started, the cells were removed by centrifugation (1000-2000 rpm×10 min), and the amount of TNF-α in the supernatant was measured in accordance with the method of Amersham, by using human TNF-α ELISA system (produced by Amersham).
The values in the Table are values obtained by supposing the amount of TNF-αin the supernatant of the culture medium when treated only with Okadaic acid having a final concentration of 50 nM, 100%.
Influences of the compounds of the present invention to production or secretion of TNF-α by Okadaic acid stimulation were observed, in the same manner as in Test Example 1.
For orientation: ELISA stands for enzyme-linked immunosorbent assay.

In series [3] the test system is angiogenesis under skin of mice. The experiment in a line: Angiogenesis under skin of mice (b-FGF matrigel, amount of hemoglobin). It is filed as in vivo, BALB/c male mice. The arrangement: key to Amount of hemoglobin, value in parentheses (Control = 100): % of control (control = 100), hemoglobin per matrigel. Conditions: for Amount of hemoglobin, value in parentheses (Control = 100): experiment (b) (Table 15). The procedure: By subcutaneously injecting a mixture having recombinant human fibroblast growth factor-basic added to matrigel, to the back of a mice, angiogenesis occurs under skin of the mice. By measuring the amount of hemoglobin in matrigel, angiogenesis can be quantified. Influences of the compounds of the present invention to angiogenesis were observed.
Matrigel (trademark; basement membrane matrix, phenol is not included, purchased from Becton Dickinson Labware) was added to Dulbecco's modified Eagle's medium (purchased from Sigma), so that the concentration was 9 mg/ml. Recombinant Human Fibroblast Growth Factor-basic (b-FGF, produced by Intergen) was added thereto, so that the concentration was 2 μg/700 μl. The mixture was subcutaneously injected to 6-week BALB/c male mice (Charles River Japan Inc.) in an amount of 700 μl per mouse. Everyday after matrigel injection, a suspension having the compound of the present invention added to 0.8% Tween 80 (purchased from Nacalai Tesque), so that the predetermined concentration could be obtained, was intraperitoneally injected to the mice. 8 days after matrigel injection, matrigel was taken out from the mice, which was then placed in 200 μl of 1% NH4OH at room temperature for 4 hours, to extract hemoglobin. The extraction and matrigel together were subjected to centrifugal separation (10000 rpm, 5 min). 100 μl of the obtained supernatant and 500 μl of Drabkin's reagent (purchased from Sigma) were mixed and left at room temperature. After left more than 15 minutes, absorbance of the supernatant at a wavelength of 540 nm was measured by using a spectrophotometer SPECTRA max 250 (produced by Molecular Devices). The amount of hemoglobin in the supernatant was obtained from the standard curve prepared by using hemoglobin standard (purchased from Sigma), and the amount of hemoglobin per matrigel obtained from a mouse was calculated.
The amount of the hemoglobin in each treatment fraction was corrected by the amount of hemoglobin wherein matrigel having no b-FGF added was injected to the mice, and 0.8% Tween 80 as a solvent alone was injected everyday.
Influences of the compounds of the present invention to angiogenesis under skin of mice were observed, in the same manner as in Test Example 8.

Setting [4] is: 1 mg/kg, experiment (b), Control 83.3 (Table 15).
Where [5] appears, read: 5 mg/kg, experiment (b), Control 83.3 (Table 15).

Regarding `CC(C)c1cccc(C(C)C)c1N1C(=O)c2ccc(C(C)(C)C)cc2C1=O` [Compound 173, N-(2,6-diisopropylphenyl)-5-tert-butyl phthalimide], the melting point was in the range of 234 to 234.8 °C. Also, the “amount of TNF-α, TPA alone = 100%” value in series [1] (compound 10 μM) was 251%.
For `Cc1ccc2c(c1)C(=O)N(c1c(C(C)C)cccc1C(C)C)C2=O` [Compound 171] the same measures were 162.9 to 163.2 °C and 421%.
Regarding `CCCCCCOc1ccc2c(c1)C(=O)N(c1c(C(C)C)cccc1C(C)C)C2=O` [Compound 193], the melting point was 117 to 118 °C.
On to `CC(C)c1cccc(C(C)C)c1N1Cc2ccccc2C1` [Compound 144, N-(2,6-diisopropylphenyl)isoindoline], for which the melting point was in the range of 130.9 to 132 °C. In addition, in series [1] (compound 100 μM), the “amount of TNF-α, TPA alone = 100%” value worked out at 319%.
In the case of `C[C@@H](c1ccccc1)N1C(=O)c2c(F)c(F)c(F)c(F)c2C1=O` [Compound 17, (S)-2-(1-phenylethyl)-4,5,6,7-tetrafluoro-1H-isoindole-1,3-dione], the “amount of TNF-α in the supernatant, Okadaic acid alone = 100%” value was determined as 100% in series [2] (compound 1 nM), 99% in series [2] (compound 10 nM), 95% in series [2] (compound 100 nM) and 70% in series [2] (compound 0.3 μM). In addition, the “amount of TNF-α in the supernatant, TPA alone = 100%” value in series [1] (compound 10 nM) was determined as 102%; in series [1] (compound 100 nM), 120%; in series [1] (compound 0.3 μM), 143%. Also, the figures for the “Amount of hemoglobin, value in parentheses (Control = 100)” value in series [3] (1 mg/kg) and in series [3] (5 mg/kg) were 21 and 31, respectively. Moreover, the Amount of hemoglobin in series [3] (setting [4]) is listed as 17.3 μg/gel; in series [3] (setting [5]), 25.7 μg/gel.
Take `C[C@H](c1ccccc1)N1C(=O)c2cccc([N+](=O)[O-])c2C1=O` [Compound 84, (R)-2-(1-phenylethyl)-4-nitro-1H-isoindole-1,3-dione]: the melting point lay in the range of 115 to 117 °C. For the same compound, the “amount of TNF-α in the supernatant, Okadaic acid alone = 100%” value in series [2] (compound 1 nM) was 99%. Further, the “amount of TNF-α in the supernatant, Okadaic acid alone = 100%” value in series [2] (compound 10 nM) was 104%. Besides, the “amount of TNF-α in the supernatant, Okadaic acid alone = 100%” value in series [2] (compound 100 nM) is recorded as 88%. In addition, the “amount of TNF-α in the supernatant, Okadaic acid alone = 100%” value in series [2] (compound 0.3 μM) turned out to be 52%. In series [1] (compound 10 nM), the “amount of TNF-α in the supernatant, TPA alone = 100%” value was 100%. For the same compound, in series [1] (compound 100 nM), the “amount of TNF-α in the supernatant, TPA alone = 100%” value is on record as 121%. Also, in series [1] (compound 0.3 μM), the “amount of TNF-α in the supernatant, TPA alone = 100%” value turned out to be 195%.
In the case of `CC(C)c1cccc(C(C)C)c1N1C(=O)c2ccccc2C1=S` [Compound 174, N-(2,6-diisopropylphenyl)thiophthalimide], the “amount of TNF-α, Okadaic acid alone = 100%” value in series [2] (compound 1 μM) stood at 96%; in series [2] (compound 10 μM), 15%; in series [2] (compound 100 μM), 0%. Further, the “amount of TNF-α, TPA alone = 100%” value in series [1] (compound 1 μM) is given as 332%; in series [1] (compound 10 μM) it was 682%; in series [1] (compound 100 μM), 1326%. Besides, the “Amount of hemoglobin, value in parentheses (dose 0 = 100)” value in series [3] (100 mg/kg intraperitoneally everyday, 8 days after matrigel injection (Table 12)) is listed as 54. Besides, the Amount of hemoglobin in series [3] (100 mg/kg intraperitoneally everyday, 8 days after matrigel injection, dose 0 = 307.3 (Table 12)) is listed as 164.8 μg/gel.
The compound `CSc1ccccc1N1C(=O)c2ccc(C)cc2C1=O` [Compound 195] displayed a melting point of 175 to 177 °C.
Take `C[C@@H](c1ccccc1)N1C(=O)c2cccc([N+](=O)[O-])c2C1=O` [Compound 83, (S)-2-(1-phenylethyl)-4-nitro-1H-isoindole-1,3-dione]: the melting point lay within 115 to 117 °C. Moreover, in series [2] (compound 1 nM), the “amount of TNF-α in the supernatant, Okadaic acid alone = 100%” value is 100%. Besides, in series [2] (compound 10 nM), the “amount of TNF-α in the supernatant, Okadaic acid alone = 100%” value is recorded as 99%. In series [2] (compound 100 nM), the “amount of TNF-α in the supernatant, Okadaic acid alone = 100%” value came to 85%. Also, the “amount of TNF-α in the supernatant, Okadaic acid alone = 100%” value in series [2] (compound 0.3 μM) turned out to be 61%. Also, the “amount of TNF-α in the supernatant, TPA alone = 100%” value in series [1] (compound 10 nM) is listed as 122%. The “amount of TNF-α in the supernatant, TPA alone = 100%” value in series [1] (compound 100 nM) amounted to 187%. The “amount of TNF-α in the supernatant, TPA alone = 100%” value in series [1] (compound 0.3 μM) came to 239%.
Consider `C[C@H](C1CCCCC1)N1C(=O)c2c(F)c(F)c(F)c(F)c2C1=O` [Compound 69, (R)-2-(1-cyclohexylethyl)-4,5,6,7-tetrafluoro-1H-isoindole-1,3-dione], for which the “amount of TNF-α in the supernatant, Okadaic acid alone = 100%” value in series [2] (compound 1 nM) is given as 101%; in series [2] (compound 10 nM), 95%; in series [2] (compound 100 nM), 59%; in series [2] (compound 0.3 μM) it was 10%. Besides, the “amount of TNF-α in the supernatant, TPA alone = 100%” value in series [1] (compound 10 nM) is recorded as 100%; in series [1] (compound 100 nM) it was 102%; in series [1] (compound 0.3 μM), 98%. For the same compound, the figures for the “Amount of hemoglobin, value in parentheses (Control = 100)” value in series [3] (1 mg/kg) and in series [3] (5 mg/kg) were 93 and 49, respectively. Further, the figures for the Amount of hemoglobin in series [3] (setting [4]) and in series [3] (setting [5]) were 77.2 μg/gel and 41.1 μg/gel, respectively.
